In the supplement of paper PMC10307832:

Columns and labels:
Assay in all cases: relative viability (nuclei count vs DMSO), 5 days (fraction); higher = more cells survive
[1] = compound: C1COCCN1C2=NC(=NC3=C2OC4=C3C=CC=N4)C5=CC(=CC=C5)NC(=O)C6=CN=C(C=C6)N + N=C(N)NC(=N)NCCc1ccccc1 [Phenformin] (partner 250 µM)
Procedure, shortened: (§1)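 Five library-drug doses in √10 steps were combined with a fixed anchor-drug dose, or a single drug was given alone, by pin tool to lung cancer cell lines in 1536-well plates the day after seeding. Nuclei were stained and counted after 5 days. Relative viability is the nuclei count in treated wells over that in vehicle wells, taken as the median of duplicate plates.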

SGI-1776 + Luminespib = compound: CN1CCC(CNc2ccc3ncc(-c4cccc(OC(F)(F)F)c4)n3n2)CC1 [SGI-1776] + CCNC(=O)c1noc(-c2cc(C(C)C)c(O)cc2O)c1-c1ccc(CN2CCOCC2)cc1 [Luminespib] (partner 0.01 µM)
Procedure, shortened: as §1

SGI-1776 + Crizotinib = compound: CN1CCC(CNc2ccc3ncc(-c4cccc(OC(F)(F)F)c4)n3n2)CC1 [SGI-1776] + C[C@@H](Oc1cc(-c2cnn(C3CCNCC3)c2)cnc1N)c1c(Cl)ccc(F)c1Cl [Crizotinib] (partner 1 µM)
Procedure, shortened: as §1

Entinostat + Lapatinib = compound: Nc1ccccc1NC(=O)c1ccc(CNC(=O)OCc2cccnc2)cc1 [Entinostat] + CS(=O)(=O)CCNCc1ccc(-c2ccc3ncnc(Nc4ccc(OCc5cccc(F)c5)c(Cl)c4)c3c2)o1 [Lapatinib] (partner 2 µM)
Procedure, shortened: as §1

Cell Line | relative viability ([1]; first compound 0.02 µM) | relative viability ([1]; first compound 0.06325 µM) | relative viability ([1]; first compound 0.2 µM) | relative viability ([1]; first compound 0.6325 µM) | relative viability ([1]; first compound 2 µM) | relative viability (SGI-1776 + Luminespib; first compound 0.08 µM) | relative viability (SGI-1776 + Luminespib; first compound 0.8 µM) | relative viability (SGI-1776 + Luminespib; first compound 2.53 µM) | relative viability (SGI-1776 + Luminespib; first compound 8 µM) | relative viability (SGI-1776 + Crizotinib; first compound 0.08 µM) | relative viability (SGI-1776 + Crizotinib; first compound 0.8 µM) | relative viability (SGI-1776 + Crizotinib; first compound 2.53 µM) | relative viability (SGI-1776 + Crizotinib; first compound 8 µM) | relative viability (Entinostat + Lapatinib; first compound 0.02 µM) | relative viability (Entinostat + Lapatinib; first compound 0.06325 µM) | relative viability (Entinostat + Lapatinib; first compound 0.2 µM) | relative viability (Entinostat + Lapatinib; first compound 0.6325 µM) | relative viability (Entinostat + Lapatinib; first compound 2 µM)
NCI-H460 | 0.554 | 0.57 | 0.512 | 0.144 | 0.0234 | 0.0293 | 0.0297 | 0.0268 | 0.019 | 0.973 | 0.573 | 0.471 | 0.0428 | 1 | 0.761 | 0.462 | 0.0242 | 0.0172
NCI-H520 | 0.597 | 0.631 | 0.588 | 0.479 | 0.403 | 0.209 | 0.218 | 0.244 | 0.281 | 0.773 | 0.828 | 0.728 | 0.473 | 1.03 | 0.946 | 0.864 | 0.776 | 0.301
NCI-H596 | 0.768 | 0.916 | 0.754 | 0.598 | 0.61 | 0.975 | 0.934 | 0.798 | 0.941 | 1.08 | 1.06 | 0.945 | 0.854 | 1.06 | 1.13 | 1.07 | 0.81 | 0.709
NCI-H647 | 0.574 | 0.768 | 0.466 | 0.519 | 0.195 | 0.263 | 0.198 | 0.192 | 0.144 | 1.16 | 0.842 | 0.992 | 0.291 | 0.936 | 0.868 | 0.996 | 0.322 | 0.101
NCI-H650 | 0.453 | 0.469 | 0.417 | 0.457 | 0.431 | 0.863 | 0.734 | 0.9 | 0.858 | 0.764 | 0.704 | 0.382 | 0.37 | 1.02 | 1.24 | 0.976 | 0.543 | 0.199
NCI-H661 | 0.268 | 0.3 | 0.263 | 0.248 | 0.206 | 0.996 | 0.977 | 1 | 0.913 | 0.932 | 1.02 | 1.03 | 0.964 | 0.573 | 0.587 | 0.8 | 0.661 | 0.476
NCI-H727 | 0.441 | 0.629 | 0.502 | 0.469 | 0.458 | 0.408 | 0.337 | 0.311 | 0.253 | 0.831 | 0.79 | 0.863 | 0.48 | 0.941 | 0.804 | 0.793 | 0.533 | 0.451
NCI-H838 | 0.514 | 0.687 | 0.485 | 0.414 | 0.198 | 0.231 | 0.331 | 0.349 | 0.254 | 0.885 | 0.854 | 0.689 | 0.319 | 1.13 | 1.12 | 0.983 | 0.696 | 0.255
NCI-H1355 | 0.449 | 0.491 | 0.461 | 0.433 | 0.434 | 0.68 | 0.625 | 0.607 | 0.551 | 1.1 | 1.03 | 1.01 | 0.935 | 1.03 | 0.978 | 0.798 | 0.568 | 0.513
NCI-H1437 | 0.343 | 0.351 | 0.286 | 0.225 | 0.114 | 1.12 | 1.19 | 1.22 | 1.12 | 0.869 | 0.9 | 1.02 | 0.952 | 0.671 | 0.399 | 0.297 | 0.183 | 0.126
NCI-H1563 | 0.647 | 0.636 | 0.654 | 0.593 | 0.532 | 0.522 | 0.497 | 0.515 | 0.538 | 0.833 | 0.888 | 0.906 | 0.785 | 0.915 | 1.01 | 0.891 | 0.821 | 0.581
NCI-H1650 | 0.358 | 0.402 | 0.413 | 0.355 | 0.237 | 0.211 | 0.198 | 0.195 | 0.172 | 0.86 | 0.999 | 0.559 | 0.231 | 0.79 | 0.897 | 0.888 | 0.521 | 0.329
NCI-H1651 | 0.333 | 0.302 | 0.315 | 0.321 | 0.182 | 0.823 | 0.977 | 0.784 | 0.642 | 0.866 | 0.834 | 0.814 | 0.879 | 0.816 | 0.905 | 0.925 | 0.726 | 0.217
NCI-H1666 | 0.577 | 0.608 | 0.473 | 0.567 | 0.442 | 1.03 | 0.995 | 0.972 | 0.877 | 1.08 | 0.934 | 0.803 | 0.668 | 0.624 | 0.564 | 0.566 | 0.282 | 0.264
NCI-H1734 | 0.372 | 0.387 | 0.371 | 0.338 | 0.251 | 0.193 | 0.201 | 0.19 | 0.163 | 0.658 | 0.686 | 0.617 | 0.402 | 1.16 | 1.11 | 1.05 | 0.787 | 0.481
NCI-H1755 | 0.606 | 0.652 | 0.644 | 0.336 | 0.469 | 0.482 | 0.515 | 0.408 | 0.326 | 0.863 | 0.898 | 0.89 | 0.808 | 1.02 | 1.02 | 0.95 | 0.532 | 0.264
NCI-H1792 | 0.245 | 0.471 | 0.211 | 0.218 | 0.179 | 0.371 | 0.558 | 0.431 | 0.264 | 1.04 | 1.05 | 0.965 | 1.09 | 0.953 | 0.96 | 0.836 | 0.767 | 0.513
